Assays:
[1] = molecular target: Serine/threonine-protein kinase B-raf (Homo sapiens, UniProt P15056); test: Inhibition of human recombinant B-Raf expressed in Sf9 cells
[2] = Cytotoxicity against human HT-29 cells expressing B-Raf mutant
[3] = tested on: WM-266-4 (Homo sapiens); test: Cytotoxicity against human WM266.4 cells expressing B-Raf mutant
[4] = in vitro; conditions: rat, liver microsomes
[5] = molecular target: Mitogen-activated protein kinase 14 (Homo sapiens, UniProt Q16539); test: Inhibition of p38alpha
[6] = Inhibition of CAMK2
[7] = molecular target: Cyclin-dependent kinase 2 (Homo sapiens, UniProt P24941); test: Inhibition of CDK2
[8] = molecular target: Cyclin-dependent kinase 4 (Homo sapiens, UniProt P11802); test: Inhibition of CDK4
[9] = molecular target: Protein kinase C alpha type (Homo sapiens, UniProt P17252); test: Inhibition of PKCalpha
[10] = molecular target: T1, Inhibitor of nuclear factor kappa-B kinase subunit beta (Homo sapiens, UniProt O14920); test: Inhibition of IKK-beta
T1 sequence (O14920 whole entry): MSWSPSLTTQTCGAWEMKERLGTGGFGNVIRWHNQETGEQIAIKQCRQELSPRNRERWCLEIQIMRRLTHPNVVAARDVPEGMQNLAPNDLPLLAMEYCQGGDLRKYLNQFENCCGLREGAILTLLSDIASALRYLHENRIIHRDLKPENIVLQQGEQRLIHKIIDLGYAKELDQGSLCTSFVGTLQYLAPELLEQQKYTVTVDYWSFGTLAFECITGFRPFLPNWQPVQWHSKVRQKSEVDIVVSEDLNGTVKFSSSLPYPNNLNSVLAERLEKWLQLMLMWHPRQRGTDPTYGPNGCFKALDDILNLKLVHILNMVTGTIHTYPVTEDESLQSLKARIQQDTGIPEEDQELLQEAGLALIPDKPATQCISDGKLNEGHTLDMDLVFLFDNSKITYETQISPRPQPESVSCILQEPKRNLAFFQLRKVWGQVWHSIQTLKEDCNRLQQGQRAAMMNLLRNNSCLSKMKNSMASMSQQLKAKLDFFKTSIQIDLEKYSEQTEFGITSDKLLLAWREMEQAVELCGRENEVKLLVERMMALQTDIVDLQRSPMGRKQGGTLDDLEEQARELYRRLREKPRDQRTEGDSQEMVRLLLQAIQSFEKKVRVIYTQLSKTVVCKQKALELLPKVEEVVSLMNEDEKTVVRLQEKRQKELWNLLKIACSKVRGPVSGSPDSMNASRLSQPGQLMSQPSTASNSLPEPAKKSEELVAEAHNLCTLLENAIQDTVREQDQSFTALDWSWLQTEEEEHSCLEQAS

[11] = molecular target: Mitogen-activated protein kinase 8 (Homo sapiens, UniProt P45983); test: Inhibition of JNK1
[12] = molecular target: MAP kinase-activated protein kinase 2 (Homo sapiens, UniProt P49137); test: Inhibition of MK2
[13] = Inhibition of PKA
[14] = molecular target: Proto-oncogene tyrosine-protein kinase Src (Homo sapiens, UniProt P12931); test: Inhibition of SRC
[15] = molecular target: T2, Dual specificity mitogen-activated protein kinase kinase 6 (Homo sapiens, UniProt P52564); test: Inhibition of MKK6
T2 sequence (P52564 whole entry): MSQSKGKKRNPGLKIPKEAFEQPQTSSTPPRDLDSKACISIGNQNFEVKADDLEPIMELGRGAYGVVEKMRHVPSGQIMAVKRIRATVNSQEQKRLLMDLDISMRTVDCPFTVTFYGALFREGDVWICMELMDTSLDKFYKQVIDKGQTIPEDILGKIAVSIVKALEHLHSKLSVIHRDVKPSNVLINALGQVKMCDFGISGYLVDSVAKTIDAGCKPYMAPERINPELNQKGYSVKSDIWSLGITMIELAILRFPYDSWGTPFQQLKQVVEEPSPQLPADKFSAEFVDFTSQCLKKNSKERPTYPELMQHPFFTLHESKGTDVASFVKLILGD

[16] = molecular target: Serine/threonine-protein kinase PLK1 (Homo sapiens, UniProt P53350); test: Inhibition of PLK1
[17] = molecular target: Ribosomal protein S6 kinase beta-1 (Homo sapiens, UniProt P23443); test: Inhibition of p70S6K
[18] = molecular target: Phosphatidylinositol 4,5-bisphosphate 3-kinase catalytic subunit alpha isoform (Homo sapiens, UniProt P42336); test: Inhibition of PI3Kalpha
[19] = tested on: WM-266-4 (Homo sapiens); test: Cytotoxicity against human WM-266-4 cells expressing B-Raf mutant

Sequence of Serine/threonine-protein kinase B-raf (P15056 whole entry): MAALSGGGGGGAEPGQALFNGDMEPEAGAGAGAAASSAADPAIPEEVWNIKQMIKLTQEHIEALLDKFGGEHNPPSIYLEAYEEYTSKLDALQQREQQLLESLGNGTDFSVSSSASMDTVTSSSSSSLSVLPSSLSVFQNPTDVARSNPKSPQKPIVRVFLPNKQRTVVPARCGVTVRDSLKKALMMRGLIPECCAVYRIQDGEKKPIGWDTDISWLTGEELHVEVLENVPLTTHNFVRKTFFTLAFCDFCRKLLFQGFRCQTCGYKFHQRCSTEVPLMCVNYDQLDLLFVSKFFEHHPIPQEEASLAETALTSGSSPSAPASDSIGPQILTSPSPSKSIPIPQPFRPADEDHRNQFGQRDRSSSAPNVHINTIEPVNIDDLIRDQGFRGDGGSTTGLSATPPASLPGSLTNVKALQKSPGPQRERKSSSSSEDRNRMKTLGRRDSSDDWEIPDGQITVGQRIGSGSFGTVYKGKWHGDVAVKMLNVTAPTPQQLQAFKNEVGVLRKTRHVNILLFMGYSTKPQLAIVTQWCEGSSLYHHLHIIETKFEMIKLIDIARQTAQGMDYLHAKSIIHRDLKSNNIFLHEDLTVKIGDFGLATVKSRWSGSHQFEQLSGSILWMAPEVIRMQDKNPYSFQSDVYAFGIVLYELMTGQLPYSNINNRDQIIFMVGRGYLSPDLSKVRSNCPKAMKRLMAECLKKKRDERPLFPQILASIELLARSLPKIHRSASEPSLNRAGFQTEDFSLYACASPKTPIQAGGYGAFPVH
Sequence of Phosphatidylinositol 4,5-bisphosphate 3-kinase catalytic subunit alpha isoform (P42336 whole entry, canonical isoform): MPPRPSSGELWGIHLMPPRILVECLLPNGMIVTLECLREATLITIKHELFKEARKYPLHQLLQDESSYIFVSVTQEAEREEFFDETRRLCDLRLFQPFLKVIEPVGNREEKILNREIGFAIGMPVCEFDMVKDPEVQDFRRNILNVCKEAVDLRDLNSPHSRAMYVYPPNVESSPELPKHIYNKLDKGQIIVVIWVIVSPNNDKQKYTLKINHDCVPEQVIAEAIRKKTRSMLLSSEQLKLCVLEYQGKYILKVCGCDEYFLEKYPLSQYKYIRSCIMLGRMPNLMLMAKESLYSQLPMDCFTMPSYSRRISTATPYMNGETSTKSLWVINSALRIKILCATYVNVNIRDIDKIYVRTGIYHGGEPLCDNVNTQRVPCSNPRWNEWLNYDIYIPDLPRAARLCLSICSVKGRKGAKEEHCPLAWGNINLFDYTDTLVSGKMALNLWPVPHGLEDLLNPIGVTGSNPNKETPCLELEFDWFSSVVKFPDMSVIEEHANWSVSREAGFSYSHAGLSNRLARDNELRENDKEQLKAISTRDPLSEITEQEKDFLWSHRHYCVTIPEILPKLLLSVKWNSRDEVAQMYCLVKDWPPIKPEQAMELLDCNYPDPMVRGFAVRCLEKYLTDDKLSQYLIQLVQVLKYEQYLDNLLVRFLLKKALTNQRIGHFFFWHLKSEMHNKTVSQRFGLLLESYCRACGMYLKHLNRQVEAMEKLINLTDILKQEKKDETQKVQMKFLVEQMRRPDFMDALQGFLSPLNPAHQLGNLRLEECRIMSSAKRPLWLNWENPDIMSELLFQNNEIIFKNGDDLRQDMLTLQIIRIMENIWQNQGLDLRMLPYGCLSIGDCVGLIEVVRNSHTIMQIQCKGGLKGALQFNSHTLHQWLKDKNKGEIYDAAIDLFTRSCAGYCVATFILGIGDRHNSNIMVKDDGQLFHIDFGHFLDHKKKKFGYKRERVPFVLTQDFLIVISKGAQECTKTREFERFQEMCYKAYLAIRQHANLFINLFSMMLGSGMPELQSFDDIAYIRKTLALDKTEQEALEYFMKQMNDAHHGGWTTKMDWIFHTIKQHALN
Sequence of Cyclin-dependent kinase 4 (P11802 whole entry): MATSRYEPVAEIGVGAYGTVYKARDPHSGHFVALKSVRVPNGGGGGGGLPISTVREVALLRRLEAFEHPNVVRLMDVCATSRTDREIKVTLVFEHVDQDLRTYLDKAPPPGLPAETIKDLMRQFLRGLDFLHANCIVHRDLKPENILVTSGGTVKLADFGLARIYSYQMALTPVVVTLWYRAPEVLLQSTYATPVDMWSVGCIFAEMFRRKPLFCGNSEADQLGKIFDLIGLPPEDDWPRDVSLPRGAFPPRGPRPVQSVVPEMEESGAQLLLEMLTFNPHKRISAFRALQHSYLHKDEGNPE
Sequence of Mitogen-activated protein kinase 8 (P45983 whole entry): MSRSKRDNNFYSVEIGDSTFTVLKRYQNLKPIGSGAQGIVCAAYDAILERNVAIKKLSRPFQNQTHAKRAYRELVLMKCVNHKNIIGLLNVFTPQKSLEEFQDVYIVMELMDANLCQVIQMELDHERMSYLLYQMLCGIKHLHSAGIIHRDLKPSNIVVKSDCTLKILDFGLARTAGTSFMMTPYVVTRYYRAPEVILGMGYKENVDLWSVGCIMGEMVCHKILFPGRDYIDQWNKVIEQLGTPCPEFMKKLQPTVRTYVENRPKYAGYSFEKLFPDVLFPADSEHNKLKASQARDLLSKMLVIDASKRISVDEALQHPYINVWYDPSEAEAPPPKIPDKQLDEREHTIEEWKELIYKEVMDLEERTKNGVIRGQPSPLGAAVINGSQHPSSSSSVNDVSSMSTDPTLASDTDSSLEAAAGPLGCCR
Sequence of MAP kinase-activated protein kinase 2 (P49137 whole entry): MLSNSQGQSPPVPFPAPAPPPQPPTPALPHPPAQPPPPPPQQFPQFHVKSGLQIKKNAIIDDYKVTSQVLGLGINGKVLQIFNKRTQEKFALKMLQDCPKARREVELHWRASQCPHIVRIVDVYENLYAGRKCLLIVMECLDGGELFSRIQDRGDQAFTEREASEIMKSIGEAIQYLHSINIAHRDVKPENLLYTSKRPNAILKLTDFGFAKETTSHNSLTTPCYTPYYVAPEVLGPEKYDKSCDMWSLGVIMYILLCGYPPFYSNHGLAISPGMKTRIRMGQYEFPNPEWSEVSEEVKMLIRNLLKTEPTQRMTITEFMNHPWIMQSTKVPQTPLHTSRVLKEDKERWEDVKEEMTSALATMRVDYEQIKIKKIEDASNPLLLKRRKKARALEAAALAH
Sequence of Mitogen-activated protein kinase 14 (Q16539 whole entry): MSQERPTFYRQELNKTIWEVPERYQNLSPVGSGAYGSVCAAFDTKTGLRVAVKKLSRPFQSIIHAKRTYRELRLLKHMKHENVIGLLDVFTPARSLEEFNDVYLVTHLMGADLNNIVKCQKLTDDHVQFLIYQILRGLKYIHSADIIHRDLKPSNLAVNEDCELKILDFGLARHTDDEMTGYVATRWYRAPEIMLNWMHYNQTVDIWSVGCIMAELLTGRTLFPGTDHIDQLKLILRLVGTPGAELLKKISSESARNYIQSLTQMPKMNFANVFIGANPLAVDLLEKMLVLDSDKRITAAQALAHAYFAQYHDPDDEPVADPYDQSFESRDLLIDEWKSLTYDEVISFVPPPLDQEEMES
Sequence of Proto-oncogene tyrosine-protein kinase Src (P12931 2-536 limits assumed): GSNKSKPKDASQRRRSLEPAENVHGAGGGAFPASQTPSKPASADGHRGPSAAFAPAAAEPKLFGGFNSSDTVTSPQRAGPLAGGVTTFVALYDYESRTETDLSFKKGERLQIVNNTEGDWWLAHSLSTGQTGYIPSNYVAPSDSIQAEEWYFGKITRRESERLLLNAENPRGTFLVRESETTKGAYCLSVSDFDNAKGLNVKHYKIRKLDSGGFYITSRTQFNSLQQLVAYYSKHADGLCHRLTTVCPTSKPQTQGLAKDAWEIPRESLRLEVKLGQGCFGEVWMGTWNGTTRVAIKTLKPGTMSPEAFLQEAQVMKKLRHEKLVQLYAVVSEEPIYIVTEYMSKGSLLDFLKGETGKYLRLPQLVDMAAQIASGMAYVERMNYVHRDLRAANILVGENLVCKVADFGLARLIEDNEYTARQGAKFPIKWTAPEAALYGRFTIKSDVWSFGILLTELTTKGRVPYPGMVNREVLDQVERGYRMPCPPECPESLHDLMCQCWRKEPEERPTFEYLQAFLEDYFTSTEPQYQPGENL

Compound | IC50 [1] [nM] | IC50 [2] [nM] | IC50 [3] [nM] | other results
CCN1CCN(Cc2cc(-c3cnn4c(-c5cccc(NC(=O)c6cccc(C(F)(F)F)c6)c5)ccnc34)co2)CC1 | 219 | 1700 | 2900 | –
CN(C)Cc1cccc(-c2cnn3c(-c4cccc(NC(=O)c5cccc(C(F)(F)F)c5)c4)ccnc23)c1 | – | 800 | – | –
CN1CCN(Cc2ccc(-c3cnn4c(-c5cccc(NC(=O)c6cccc(C(F)(F)F)c6)c5)ccnc34)cc2)CC1 | 38 | 700 | – | half-life [4]: 3 min
Nc1ccc(-c2cnn3c(-c4cccc(NC(=O)c5cccc(C(F)(F)F)c5)c4)ccnc23)cn1 | – | 2400 | 3400 | –
O=C(Nc1ccc(Cl)c(-c2ccnc3c(-c4cn[nH]c4)cnn23)c1)c1cccc(C(F)(F)F)c1 | 42 | 2900 | – | –
CN1CCN(c2ccc(-c3cnn4c(-c5cc(NC(=O)c6cccc(C(F)(F)F)c6)ccc5F)ccnc34)cn2)CC1 | 30 | 630 | – | –
CN(C)CCc1ccccc1-c1cnn2c(-c3cccc(NC(=O)c4cccc(C(F)(F)F)c4)c3)ccnc12 | – | 840 | – | –
CN1CCN(c2ccc(-c3cnn4c(-c5cccc(NC(=O)c6cccc(C(F)(F)F)c6)c5)ccnc34)cn2)CC1 | 44 | 310 | – | –
CN(C)Cc1ccc(-c2cnn3c(-c4cccc(NC(=O)c5cccc(C(F)(F)F)c5)c4)ccnc23)cc1 | – | 780 | – | IC50 [5]: 216 nM; IC50 [6]: 822 nM; IC50 [7]: > 2000 nM; IC50 [8]: > 2000 nM; IC50 [9]: > 2000 nM; IC50 [10]: > 2000 nM; IC50 [11]: > 2000 nM; IC50 [12]: > 2000 nM; IC50 [13]: > 2000 nM; IC50 [14]: > 2000 nM; IC50 [15]: > 2000 nM; IC50 [16]: > 2000 nM; IC50 [17]: > 2000 nM; IC50 [18]: > 2000 nM; half-life [4]: 6 min
CN1CCN(CCCC#Cc2cnn3c(-c4cccc(NC(=O)c5cccc(C(F)(F)F)c5)c4)ccnc23)CC1 | – | 2600 | 1400 | half-life [4]: 3 min
O=C(Nc1ccc(F)c(-c2ccnc3c(-c4cn[nH]c4)cnn23)c1)c1cccc(C(F)(F)F)c1 | 18 | 2800 | – | –
O=C(Nc1cccc(-c2ccnc3c(C#CCCCN4CCOCC4)cnn23)c1)c1cccc(C(F)(F)F)c1 | – | 3500 | 5500 | half-life [4]: > 30 min
O=C(Nc1cccc(-c2ccnc3c(-c4cn[nH]c4)cnn23)c1)c1cccc(C(F)(F)F)c1 | – | 2800 | – | –
COCCOCC(=O)Nc1ccc(-c2cnn3c(-c4cccc(NC(=O)c5cccc(C(F)(F)F)c5)c4)ccnc23)cc1 | 139 | 3900 | > 10000 | –
O=C(Nc1cccc(-c2ccnc3c(-c4cnc(N5CCOCC5)nc4)cnn23)c1)c1cccc(C(F)(F)F)c1 | 941 | – | – | –
O=C(Nc1cccc(-c2ccnc3c(-c4cccnc4)cnn23)c1)c1cccc(C(F)(F)F)c1 | 113 | – | – | –
O=C(Nc1cccc(-c2ccnc3c(-c4coc(CN5CCCC5)c4)cnn23)c1)c1cccc(C(F)(F)F)c1 | – | 2200 | 3200 | –
CN(C)Cc1ccccc1-c1cnn2c(-c3cccc(NC(=O)c4cccc(C(F)(F)F)c4)c3)ccnc12 | – | 2900 | 2900 | –
NC(=O)c1cccc(-c2cnn3c(-c4cccc(NC(=O)c5cccc(C(F)(F)F)c5)c4)ccnc23)c1 | – | 3200 | – | IC50 [19]: 3700 nM
CN(C)CCc1ccc(-c2cnn3c(-c4cccc(NC(=O)c5cccc(C(F)(F)F)c5)c4)ccnc23)cc1 | – | 730 | 740 | –
CN(C)CCc1cccc(-c2cnn3c(-c4cccc(NC(=O)c5cccc(C(F)(F)F)c5)c4)ccnc23)c1 | – | 650 | – | –
O=C(Nc1cccc(-c2ccnc3c(-c4ccc(CN5CCCC5)cc4)cnn23)c1)c1cccc(C(F)(F)F)c1 | 20 | 650 | – | half-life [4]: 27 min
CN(C)c1ccc(-c2cnn3c(-c4cccc(NC(=O)c5cccc(C(F)(F)F)c5)c4)ccnc23)cc1 | 308 | – | > 10000 | –
O=C(Nc1cccc(-c2ccnc3c(-c4cnn(CCN5CCCC5)c4)cnn23)c1)c1cccc(C(F)(F)F)c1 | – | 2800 | 3300 | half-life [4]: 26 min
CN(C)CC(=O)Nc1ccc(-c2cnn3c(-c4cccc(NC(=O)c5cccc(C(F)(F)F)c5)c4)ccnc23)cc1 | 34 | 770 | – | –
CN(C)CC(=O)Nc1cccc(-c2cnn3c(-c4cccc(NC(=O)c5cccc(C(F)(F)F)c5)c4)ccnc23)c1 | – | 800 | – | –
CN(C)CCNc1ccc(-c2cnn3c(-c4cccc(NC(=O)c5cccc(C(F)(F)F)c5)c4)ccnc23)cn1 | – | 460 | – | –
COc1ccc(NC(=O)c2cccc(C(F)(F)F)c2)cc1-c1ccnc2c(-c3cn[nH]c3)cnn12 | 98 | 2900 | – | –

— ChEMBL document CHEMBL1153694, “Non-hinge-binding pyrazolo[1,5-a]pyrimidines as potent B-Raf kinase inhibitors” (Bioorg Med Chem Lett, 2009)
